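Compound exposure: 48 hours, 5 concentrations, 96-well plates. Definition used: TGI = concentration required for complete inhibition of growth.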
What was measured:
Assay in all cases: inhibition of tumour cell growth, NCI panel, 48 h
DU-145 prostate = system: DU-145 prostate
HCT-116 colon = system: HCT-116 colon
SF-295 CNS = system: SF-295 CNS
CAKI-1 renal = system: CAKI-1 renal
COLO 205 colon = system: COLO 205 colon
BT-549 breast = system: BT-549 breast
MDA-N = system: MDA-N
OVCAR-5 ovarian = system: OVCAR-5 ovarian
SNB-19 CNS = system: SNB-19 CNS
MCF7 breast = system: MCF7 breast
M14 melanoma = system: M14 melanoma
SN12C renal = system: SN12C renal
A498 renal = system: A498 renal
OVCAR-4 ovarian = system: OVCAR-4 ovarian
MOLT-4 leukemia = system: MOLT-4 leukemia
RPMI-8226 leukemia = system: RPMI-8226 leukemia
RXF 393 renal = system: RXF 393 renal
UACC-62 melanoma = system: UACC-62 melanoma
UO-31 renal = system: UO-31 renal
HOP-92 NSCLC = system: HOP-92 NSCLC
MDA-MB-231 breast = system: MDA-MB-231 breast
K-562 leukemia = system: K-562 leukemia
SK-MEL-5 melanoma = system: SK-MEL-5 melanoma
SW-620 colon = system: SW-620 colon
CCRF-CEM leukemia = system: CCRF-CEM leukemia
SF-268 CNS = system: SF-268 CNS
SK-MEL-2 melanoma = system: SK-MEL-2 melanoma
UACC-257 melanoma = system: UACC-257 melanoma
TK-10 renal = system: TK-10 renal
SR leukemia = system: SR leukemia
NCI-H23 lung = system: NCI-H23 lung
NCI-H522 lung = system: NCI-H522 lung
HCT-15 colon = system: HCT-15 colon
SK-MEL-28 melanoma = system: SK-MEL-28 melanoma
A549 NSCLC = system: A549 NSCLC
HT29 colon = system: HT29 colon
786-0 renal = system: 786-0 renal
ACHN renal = system: ACHN renal
SNB-75 CNS = system: SNB-75 CNS
KM12 colon = system: KM12 colon
IGROV1 ovarian = system: IGROV1 ovarian
PC-3 prostate = system: PC-3 prostate
EKVX NSCLC = system: EKVX NSCLC
NCI-H460 lung = system: NCI-H460 lung
NCI-H226 lung = system: NCI-H226 lung
MALME-3M melanoma = system: MALME-3M melanoma
MDA-MB-435 = system: MDA-MB-435
HS 578T breast = system: HS 578T breast
U251 CNS = system: U251 CNS
HL-60(TB) leukemia = system: HL-60(TB) leukemia
SF-539 CNS = system: SF-539 CNS
SK-OV-3 ovarian = system: SK-OV-3 ovarian
OVCAR-8 ovarian = system: OVCAR-8 ovarian
HCC-2998 colon = system: HCC-2998 colon
LOX IMVI melanoma = system: LOX IMVI melanoma
HOP-62 NSCLC = system: HOP-62 NSCLC
NCI/ADR-RES ovarian = system: NCI/ADR-RES ovarian
OVCAR-3 ovarian = system: OVCAR-3 ovarian

O=c1cc(-c2ccccc2)nc(-n2[nH]c3c(c2=O)CCCC3)[nH]1
TGI (DU-145 prostate): 3.97 µM
TGI (HCT-116 colon): 18.6 µM
TGI (SF-295 CNS): > 100 µM
TGI (CAKI-1 renal): > 100 µM
TGI (COLO 205 colon): 40.8 µM
TGI (BT-549 breast): > 100 µM
TGI (MDA-N): > 100 µM
TGI (OVCAR-5 ovarian): > 100 µM
TGI (SNB-19 CNS): > 100 µM
TGI (MCF7 breast): > 100 µM
TGI (M14 melanoma): 26.8 µM
TGI (SN12C renal): > 100 µM
TGI (A498 renal): > 100 µM
TGI (OVCAR-4 ovarian): 61.9 µM
TGI (MOLT-4 leukemia): > 100 µM
TGI (RPMI-8226 leukemia): 65.7 µM
TGI (RXF 393 renal): 25.5 µM
TGI (UACC-62 melanoma): 15.6 µM
TGI (UO-31 renal): > 100 µM
TGI (HOP-92 NSCLC): > 100 µM
TGI (MDA-MB-231 breast): > 100 µM
TGI (K-562 leukemia): > 100 µM
TGI (SK-MEL-5 melanoma): > 100 µM
TGI (SW-620 colon): > 100 µM
TGI (CCRF-CEM leukemia): 35.8 µM
TGI (SF-268 CNS): > 100 µM
TGI (SK-MEL-2 melanoma): 29.4 µM
TGI (UACC-257 melanoma): > 100 µM
TGI (TK-10 renal): > 100 µM
TGI (SR leukemia): > 100 µM
TGI (NCI-H23 lung): > 100 µM
TGI (NCI-H522 lung): 69.6 µM
TGI (HCT-15 colon): > 100 µM
TGI (SK-MEL-28 melanoma): 28.9 µM
TGI (A549 NSCLC): > 100 µM
TGI (HT29 colon): 33.8 µM
TGI (786-0 renal): 46.3 µM
TGI (ACHN renal): 80.1 µM
TGI (SNB-75 CNS): 14.2 µM
TGI (KM12 colon): > 100 µM
TGI (IGROV1 ovarian): > 100 µM
TGI (PC-3 prostate): > 100 µM
TGI (EKVX NSCLC): > 100 µM
TGI (NCI-H460 lung): > 100 µM
TGI (NCI-H226 lung): > 100 µM
TGI (MALME-3M melanoma): > 100 µM
TGI (MDA-MB-435): 89.9 µM
TGI (HS 578T breast): > 100 µM
TGI (U251 CNS): > 100 µM
TGI (HL-60(TB) leukemia): > 100 µM
TGI (SF-539 CNS): 44.6 µM
TGI (SK-OV-3 ovarian): > 100 µM

CCOC(=O)C1OC(=O)CC1C1(C(=O)OCC)C=CC(=O)O1 (stereo not given)
TGI (DU-145 prostate): > 100 µM
TGI (HCT-116 colon): > 100 µM
TGI (SF-295 CNS): > 100 µM
TGI (CAKI-1 renal): > 100 µM
TGI (COLO 205 colon): > 100 µM
TGI (BT-549 breast): > 100 µM
TGI (MDA-N): > 100 µM
TGI (OVCAR-5 ovarian): > 100 µM
TGI (SNB-19 CNS): > 100 µM
TGI (MCF7 breast): > 100 µM
TGI (OVCAR-8 ovarian): > 100 µM
TGI (HCC-2998 colon): > 100 µM
TGI (M14 melanoma): > 100 µM
TGI (SN12C renal): > 100 µM
TGI (OVCAR-4 ovarian): > 100 µM
TGI (MOLT-4 leukemia): > 100 µM
TGI (RPMI-8226 leukemia): > 100 µM
TGI (RXF 393 renal): > 100 µM
TGI (UACC-62 melanoma): > 100 µM
TGI (LOX IMVI melanoma): 93.3 µM
TGI (UO-31 renal): > 100 µM
TGI (HOP-92 NSCLC): > 100 µM
TGI (K-562 leukemia): > 100 µM
TGI (SK-MEL-5 melanoma): > 100 µM
TGI (SW-620 colon): > 100 µM
TGI (CCRF-CEM leukemia): > 100 µM
TGI (SF-268 CNS): > 100 µM
TGI (SK-MEL-2 melanoma): > 100 µM
TGI (UACC-257 melanoma): > 100 µM
TGI (TK-10 renal): > 100 µM
TGI (SR leukemia): > 100 µM
TGI (HOP-62 NSCLC): > 100 µM
TGI (NCI-H23 lung): > 100 µM
TGI (NCI-H522 lung): > 100 µM
TGI (HCT-15 colon): > 100 µM
TGI (SK-MEL-28 melanoma): > 100 µM
TGI (A549 NSCLC): > 100 µM
TGI (NCI/ADR-RES ovarian): > 100 µM
TGI (HT29 colon): > 100 µM
TGI (786-0 renal): > 100 µM
TGI (ACHN renal): > 100 µM
TGI (SNB-75 CNS): > 100 µM
TGI (KM12 colon): > 100 µM
TGI (IGROV1 ovarian): > 100 µM
TGI (OVCAR-3 ovarian): > 100 µM
TGI (PC-3 prostate): > 100 µM
TGI (EKVX NSCLC): > 100 µM
TGI (NCI-H460 lung): 58.1 µM
TGI (NCI-H226 lung): > 100 µM
TGI (MALME-3M melanoma): > 100 µM
TGI (U251 CNS): > 100 µM
TGI (HL-60(TB) leukemia): > 100 µM
TGI (SF-539 CNS): > 100 µM
TGI (SK-OV-3 ovarian): > 100 µM

CC1CC/C(=C\c2ccc(F)cc2)C2=C1C(c1ccc(F)cc1)n1c(s/c(=C/c3cccc(Br)c3)c1=O)=N2 (stereo not given)
TGI (DU-145 prostate): > 100 µM
TGI (HCT-116 colon): > 100 µM
TGI (CAKI-1 renal): > 100 µM
TGI (MDA-N): > 100 µM
TGI (OVCAR-5 ovarian): > 100 µM
TGI (SNB-19 CNS): > 100 µM
TGI (MCF7 breast): > 100 µM
TGI (OVCAR-8 ovarian): > 100 µM
TGI (M14 melanoma): > 100 µM
TGI (SN12C renal): > 100 µM
TGI (A498 renal): > 100 µM
TGI (MOLT-4 leukemia): > 100 µM
TGI (RPMI-8226 leukemia): > 100 µM
TGI (RXF 393 renal): > 100 µM
TGI (UACC-62 melanoma): > 100 µM
TGI (LOX IMVI melanoma): > 100 µM
TGI (HOP-92 NSCLC): > 100 µM
TGI (MDA-MB-231 breast): > 100 µM
TGI (K-562 leukemia): > 100 µM
TGI (SK-MEL-5 melanoma): > 100 µM
TGI (SW-620 colon): > 100 µM
TGI (CCRF-CEM leukemia): > 100 µM
TGI (SF-268 CNS): > 100 µM
TGI (SK-MEL-2 melanoma): > 100 µM
TGI (UACC-257 melanoma): > 100 µM
TGI (TK-10 renal): > 100 µM
TGI (SR leukemia): > 100 µM
TGI (HOP-62 NSCLC): > 100 µM
TGI (HCT-15 colon): > 100 µM
TGI (SK-MEL-28 melanoma): > 100 µM
TGI (A549 NSCLC): > 100 µM
TGI (HT29 colon): > 100 µM
TGI (786-0 renal): > 100 µM
TGI (ACHN renal): > 100 µM
TGI (SNB-75 CNS): > 100 µM
TGI (KM12 colon): > 100 µM
TGI (IGROV1 ovarian): > 100 µM
TGI (PC-3 prostate): > 100 µM
TGI (EKVX NSCLC): > 100 µM
TGI (MDA-MB-435): > 100 µM
TGI (HS 578T breast): > 100 µM
TGI (U251 CNS): > 100 µM
TGI (HL-60(TB) leukemia): > 100 µM
TGI (SK-OV-3 ovarian): > 100 µM
